In patent US12691101B2, “Compound and method for preventing or treating of respiratory diseases comprising the same as an active ingredient” (YONSEI UNIVERSITY, UNIVERSITY - INDUSTRY FOUNDATION (UIF), priority 2019, dated 2026):

What was measured:
human 5-HT2A = target: T1, human 5-HT2A (Homo sapiens, UniProt P28223); assay: 5-HT2A activity in FRT cells; assay type: cell-based; conditions: pretreated 10 minutes
T1 construct: expressed in transfected cells; host or cells: FRT cells co-expressing ANO1(abc) and YFP-F46L/H148Q/I152L
Procedure: (A) The inhibition of mouse pendrin (mPDS)-mediated Cl^−/I^− exchange activity by F56 was measured in CHO-K1 cells (mean±S.E., n=5). The indicated concentration of F56 was pretreated for 10 minutes. (B) Summary of dose-response for inhibition of the human pendrin (hPDS)-mediated (closed circle, FIG. (a), C) and mPDS-mediated (open circle) Cl^−/I^− exchange activity. (C-F) Representative traces of intracellular pH in CHO-K1 cells expressing SLC26A3, SLC26A6, SLC26A7 and SLC26A9 were shown. The application of Cl^− free solution induced intracellular alkalization by Cl^−/HCO3^− exchange. The indicated concentration of F56 was pretreated for 10 minutes. (G) the effect of F56 (100 μM) on the CFTR chloride channel activity was measured in FRT cells expressing human CFTR. The CFTR current was activated by 20 μM forskolin and was inhibited by 10 μM CFTRinh-172. (H) The effect of F56 (100 μM) on the AN01 chloride channel activity was measured in FRT cells expressing human AN01. Before 10 minutes prior to AN01 activation by 100 μM ATP, F56 was added. (Right) Peak current summary (mean±S.E., n=3). (I) The effect of F56 on the hERG (Kv11.1) potassium channel activity was measured in HEK293T cells expressing human Kv11.1 (mean±S.E., n=4). […] (J) The effect of F56 on the 5-HT2A channel activity was measured in FRT cells expressing human 5-HT2A (mean±S.E., n=4). […]

Duox1 and Duox2 mRNA = assay: Real-time PCR of Duox1 and Duox2 mRNA in IL-4-treated HNE cells; assay type: cell-based, human
Procedure: (§1) The total messenger RNA (mRNA) was extracted using TRIzol reagent (Invitrogen, Carlsbad, CA, USA), and was reverse-transcribed using a random hexamer primer, an oligo(dT) primer and SuperScript® III reverse transcriptase (Invitrogen). Quantitative real-time PCR was performed using StepOnePlus Real-Time PCR system (Applied Biosystems, Foster City, CA, USA) and Thunderbird SYBR qPCR mix (Tokyobo, Osaka, Japan). Thermal cycling conditions included the initial stage at 95° C. for 5 minutes, and subsequent 40 cycles at 95° C. for 10 seconds, at 55° C. for 20 seconds and at 72° C. for […].

[1] = Auditory brainstem response (ABR) hearing threshold in mice; assay type: in vivo, mouse; conditions: 10 mg/kg/day for 1 week
Procedure: (§2) The negative effect of F56 was examined by i.p administering of F56 10 mg/kg to female balb/c mice every 24 hours for 7 days. In 24 hours after the last administration, the hearing of mice was measured and serum was obtained. According to the manufacturer's protocol, the total serum level of triiodothyronine (T3) or thyroxine (T4) using a mouse ELISA kit (Calbiotech, T3043T-100 or T4044T-100).
The hearing level was measured in each mouse by measuring ABR threshold using an auditory-evoking potential workstation and BioSig software (Tucker-Davis Technologies, Alachua, FL, USA). The output from the speaker was calibrated using PCB 377C10 microphone (PCB Piezotronics, Inc. New York, NY, USA) and found to be within ±4 dB over the tested frequency range. After anesthetizing the mice, each ear was stimulated with an ear probe sealed inside the ear canal. The body temperature of the mice was maintained at 38° C. with an isothermal heating water-pad. The intensity of the click sound decreased from 70 dB SPL to 10 dB SPL with a 5-dB decrease. The mean value of ABR was calculated and the auditory threshold was defined as the lowest ABR response until wave I of ABR was no longer visually discernible.

Serum T3 and T4 in mice = assay type: in vivo, mouse; conditions: 10 mg/kg/day for 1 week
Procedure: as §2

tracheal smooth muscle = assay: Tracheal contraction in rat tracheal ring; conditions: 30 μM after carbachol-induced contraction
Procedure: All experiments were performed using 4-week-old SD male rats. The experimental protocol was approved by the Animal Ethics Committee of Yonsei University. The rats were sacrificed and tracheal strips were separated. After the connective tissue was separated, the organ was cut into 3 mm long rings. The organ was mounted for tension recording under 1 g tension and equilibrated for 1 hour in an organ bath containing 25 mL of oxygenated physiological solution. The solution was gassed successively with 95% 02 and 5% CO2 at 37° C. After 1 hours of stabilization, 0.3 μM carbachol (CCh) was used to induce a sustained contraction reaction in the organ bath. Once the sustained tension was established, F56 (30 μM) and forskolin (10 μM) and IBMX (100 μM) were applied to the bath. The organ contraction was measured using FORT 10G converter (World Precision Instruments, Sarasota, FL, USA) and PowerLab 4/35 (AD Instruments, Castle Hill, Australia). Data were recorded and analyzed using Labchart Pro 7 (AD Instruments).

Duox2 mRNA = Duox2 mRNA expression in LPS-treated hAEC, real-time PCR; assay type: cell-based, human
Procedure: as §1

effect on 5-HT2A activity (human 5-HT2A): not affected
hearing threshold [1]: not changed
T3 and T4 plasma level (Serum T3 and T4 in mice): not changed
effect on tracheal smooth muscle (tracheal smooth muscle): did not affect
chemical stability (Stability statements): chemically stable
Structure (SMILES): CC(C)(C)c1ccc(C2=NC(=Cc3cccs3)C(=O)O2)cc1 [F56, 2-(4-(tert-butyl)phenyl)-4-(thiophen-2-ylmethylene)oxazol-5(4H)-one]
mRNA expression of Duox1 or Duox2 (Duox1 and Duox2 mRNA): did not affect
mRNA expression level of Duox2 (Duox2 mRNA): did not change
